Measured values as given in ChEMBL document CHEMBL5120927, “LEGO-Lipophosphonoxins: A Novel Approach in Designing Membrane Targeting Antimicrobials” (J Med Chem, 2022).

Tested on: Escherichia coli
Assay: Antibacterial activity against multidrug-resistant Escherichia coli CE5556 expressing CTX-M-15 assessed as reduction in microbial growth incubated for 24 hrs by microdilution assay
Assay type: functional
Settings: not given

Structure (SMILES)	MIC [µg/mL]
CCCCC/C=C\CCCOP(=O)(CCN(CCCN)CCCN)OCCCCCCOP(=O)(CCN(CCCN)CCCN)OCCC/C=C\CCCCC.Cl.Cl.Cl.Cl.Cl.Cl (centres undefined)	1
CCCCOP(=O)(CCN(CCCN)CCCN)OCCCCCCCCCCOP(=O)(CCN(CCCN)CCCN)OCCCC.Cl.Cl.Cl.Cl.Cl.Cl (centres undefined)	> 128
CCCCCCCCCCOP(=O)(CCN(CCCN)CCCN)OCCCCCCCCCCOP(=O)(CCN(CCCN)CCCN)OCCCCCCCCCC.Cl.Cl.Cl.Cl.Cl.Cl (centres undefined)	2

Tested on: Pseudomonas aeruginosa
Assay: Antibacterial activity against multidrug-resistant Pseudomonas aeruginosa assessed as reduction in microbial growth incubated for 24 hrs by microdilution assay
Assay type: functional
Settings: not given

Structure (SMILES)	MIC [µg/mL]
CCCCC/C=C\CCCOP(=O)(CCN(CCCN)CCCN)OCCCCCCOP(=O)(CCN(CCCN)CCCN)OCCC/C=C\CCCCC.Cl.Cl.Cl.Cl.Cl.Cl (centres undefined)	2
CCCCOP(=O)(CCN(CCCN)CCCN)OCCCCCCCCCCOP(=O)(CCN(CCCN)CCCN)OCCCC.Cl.Cl.Cl.Cl.Cl.Cl (centres undefined)	> 128
CCCCCCCCCCOP(=O)(CCN(CCCN)CCCN)OCCCCCCCCCCOP(=O)(CCN(CCCN)CCCN)OCCCCCCCCCC.Cl.Cl.Cl.Cl.Cl.Cl (centres undefined)	4

Tested on: Staphylococcus aureus
Assay: Antibacterial activity against Staphylococcus aureus ATCC 29213 = CCM 4223 assessed as inhibition of bacterial growth incubated for 24 hrs in presence of BSA by microdilution assay
Assay type: functional
Settings: not given

Structure (SMILES)	MIC [µg/mL]
CCCCC/C=C\CCCOP(=O)(CCN(CCCN)CCCN)OCCCCCCOP(=O)(CCN(CCCN)CCCN)OCCC/C=C\CCCCC.Cl.Cl.Cl.Cl.Cl.Cl (centres undefined)	1
CCCCOP(=O)(CCN(CCCN)CCCN)OCCCCCCCCCCOP(=O)(CCN(CCCN)CCCN)OCCCC.Cl.Cl.Cl.Cl.Cl.Cl (centres undefined)	16
CCCCCCCCCCOP(=O)(CCN(CCCN)CCCN)OCCCCCCCCCCOP(=O)(CCN(CCCN)CCCN)OCCCCCCCCCC.Cl.Cl.Cl.Cl.Cl.Cl (centres undefined)	1

Tested on: Enterococcus faecium
Assay: Antibacterial activity against vancomycin resistant Enterococcus faecium 419/ANA assessed as reduction in microbial growth incubated for 24 hrs by microdilution assay
Assay type: functional
Settings: not given

Structure (SMILES)	MIC [µg/mL]
CCCCC/C=C\CCCOP(=O)(CCN(CCCN)CCCN)OCCCCCCOP(=O)(CCN(CCCN)CCCN)OCCC/C=C\CCCCC.Cl.Cl.Cl.Cl.Cl.Cl (centres undefined)	2
CCCCOP(=O)(CCN(CCCN)CCCN)OCCCCCCCCCCOP(=O)(CCN(CCCN)CCCN)OCCCC.Cl.Cl.Cl.Cl.Cl.Cl (centres undefined)	> 128
CCCCCCCCCCOP(=O)(CCN(CCCN)CCCN)OCCCCCCCCCCOP(=O)(CCN(CCCN)CCCN)OCCCCCCCCCC.Cl.Cl.Cl.Cl.Cl.Cl (centres undefined)	2

Tested on: Escherichia coli
Assay: Antibacterial activity against Escherichia coli ATCC 25922 = CCM 3954 assessed as inhibition of bacterial growth incubated for 24 hrs by microdilution assay
Assay type: functional
Settings: not given

Structure (SMILES)	MIC [µg/mL]
CCCCC/C=C\CCCOP(=O)(CCN(CCCN)CCCN)OCCCCCCOP(=O)(CCN(CCCN)CCCN)OCCC/C=C\CCCCC.Cl.Cl.Cl.Cl.Cl.Cl (centres undefined)	0.5
CCCCOP(=O)(CCN(CCCN)CCCN)OCCCCCCCCCCOP(=O)(CCN(CCCN)CCCN)OCCCC.Cl.Cl.Cl.Cl.Cl.Cl (centres undefined)	> 128
CCCCCCCCCCOP(=O)(CCN(CCCN)CCCN)OCCCCCCCCCCOP(=O)(CCN(CCCN)CCCN)OCCCCCCCCCC.Cl.Cl.Cl.Cl.Cl.Cl (centres undefined)	> 2

Tested on: Pseudomonas aeruginosa
Assay: Antibacterial activity against Pseudomonas aeruginosa ATCC 27853 = CCM 3955 assessed as inhibition of bacterial growth incubated for 24 hrs by microdilution assay
Assay type: functional
Settings: not given

Structure (SMILES)	MIC [µg/mL]
CCCCC/C=C\CCCOP(=O)(CCN(CCCN)CCCN)OCCCCCCOP(=O)(CCN(CCCN)CCCN)OCCC/C=C\CCCCC.Cl.Cl.Cl.Cl.Cl.Cl (centres undefined)	2
CCCCOP(=O)(CCN(CCCN)CCCN)OCCCCCCCCCCOP(=O)(CCN(CCCN)CCCN)OCCCC.Cl.Cl.Cl.Cl.Cl.Cl (centres undefined)	> 128
CCCCCCCCCCOP(=O)(CCN(CCCN)CCCN)OCCCCCCCCCCOP(=O)(CCN(CCCN)CCCN)OCCCCCCCCCC.Cl.Cl.Cl.Cl.Cl.Cl (centres undefined)	4

Tested on: Staphylococcus aureus
Assay: Antibacterial activity against Staphylococcus aureus ATCC 29213 = CCM 4223 assessed as inhibition of bacterial growth incubated for 24 hrs by microdilution assay
Assay type: functional
Settings: not given

Structure (SMILES)	MIC [µg/mL]
CCCCC/C=C\CCCOP(=O)(CCN(CCCN)CCCN)OCCCCCCOP(=O)(CCN(CCCN)CCCN)OCCC/C=C\CCCCC.Cl.Cl.Cl.Cl.Cl.Cl (centres undefined)	0.5
CCCCOP(=O)(CCN(CCCN)CCCN)OCCCCCCCCCCOP(=O)(CCN(CCCN)CCCN)OCCCC.Cl.Cl.Cl.Cl.Cl.Cl (centres undefined)	16
CCCCCCCCCCOP(=O)(CCN(CCCN)CCCN)OCCCCCCCCCCOP(=O)(CCN(CCCN)CCCN)OCCCCCCCCCC.Cl.Cl.Cl.Cl.Cl.Cl (centres undefined)	2

Tested on: not listed separately
Assay: Gradient chromatographic hydrophobicity index of the compound at pH 3.7 by HPLC analysis
Assay type: ADME
Settings: not given

Structure (SMILES)	CHI
CCCCC/C=C\CCCOP(=O)(CCN(CCCN)CCCN)OCCCCCCOP(=O)(CCN(CCCN)CCCN)OCCC/C=C\CCCCC.Cl.Cl.Cl.Cl.Cl.Cl (centres undefined)	40.6
CCCCOP(=O)(CCN(CCCN)CCCN)OCCCCCCCCCCOP(=O)(CCN(CCCN)CCCN)OCCCC.Cl.Cl.Cl.Cl.Cl.Cl (centres undefined)	27.3
CCCCCCCCCCOP(=O)(CCN(CCCN)CCCN)OCCCCCCCCCCOP(=O)(CCN(CCCN)CCCN)OCCCCCCCCCC.Cl.Cl.Cl.Cl.Cl.Cl (centres undefined)	46.9

Tested on: Staphylococcus epidermidis
Assay: Antibacterial activity against Staphylococcus epidermidis CCM 7221 assessed as inhibition of bacterial growth incubated for 24 hrs by microdilution assay
Assay type: functional
Settings: not given

Structure (SMILES)	MIC [µg/mL]
CCCCC/C=C\CCCOP(=O)(CCN(CCCN)CCCN)OCCCCCCOP(=O)(CCN(CCCN)CCCN)OCCC/C=C\CCCCC.Cl.Cl.Cl.Cl.Cl.Cl (centres undefined)	0.5
CCCCOP(=O)(CCN(CCCN)CCCN)OCCCCCCCCCCOP(=O)(CCN(CCCN)CCCN)OCCCC.Cl.Cl.Cl.Cl.Cl.Cl (centres undefined)	4
CCCCCCCCCCOP(=O)(CCN(CCCN)CCCN)OCCCCCCCCCCOP(=O)(CCN(CCCN)CCCN)OCCCCCCCCCC.Cl.Cl.Cl.Cl.Cl.Cl (centres undefined)	1

Tested on: Staphylococcus aureus
Assay: Antibacterial activity against methicillin resistant Staphylococcus aureus 4591/A assessed as reduction in microbial growth incubated for 24 hrs by microdilution assay
Assay type: functional
Settings: not given

Structure (SMILES)	MIC [µg/mL]
CCCCC/C=C\CCCOP(=O)(CCN(CCCN)CCCN)OCCCCCCOP(=O)(CCN(CCCN)CCCN)OCCC/C=C\CCCCC.Cl.Cl.Cl.Cl.Cl.Cl (centres undefined)	0.5
CCCCOP(=O)(CCN(CCCN)CCCN)OCCCCCCCCCCOP(=O)(CCN(CCCN)CCCN)OCCCC.Cl.Cl.Cl.Cl.Cl.Cl (centres undefined)	8
CCCCCCCCCCOP(=O)(CCN(CCCN)CCCN)OCCCCCCCCCCOP(=O)(CCN(CCCN)CCCN)OCCCCCCCCCC.Cl.Cl.Cl.Cl.Cl.Cl (centres undefined)	1

Tested on: Escherichia coli
Assay: Antibacterial activity against Escherichia coli ATCC 25922 = CCM 3954 assessed as inhibition of bacterial growth incubated for 24 hrs in presence of BSA by microdilution assay
Assay type: functional
Settings: not given

Structure (SMILES)	MIC [µg/mL]
CCCCC/C=C\CCCOP(=O)(CCN(CCCN)CCCN)OCCCCCCOP(=O)(CCN(CCCN)CCCN)OCCC/C=C\CCCCC.Cl.Cl.Cl.Cl.Cl.Cl (centres undefined)	1
CCCCOP(=O)(CCN(CCCN)CCCN)OCCCCCCCCCCOP(=O)(CCN(CCCN)CCCN)OCCCC.Cl.Cl.Cl.Cl.Cl.Cl (centres undefined)	> 128
CCCCCCCCCCOP(=O)(CCN(CCCN)CCCN)OCCCCCCCCCCOP(=O)(CCN(CCCN)CCCN)OCCCCCCCCCC.Cl.Cl.Cl.Cl.Cl.Cl (centres undefined)	16

Tested on: Enterococcus faecalis
Assay: Antibacterial activity against Enterococcus faecalis ATCC 29212 = CCM 4224 assessed as inhibition of bacterial growth incubated for 24 hrs by microdilution assay
Assay type: functional
Settings: not given

Structure (SMILES)	MIC [µg/mL]
CCCCC/C=C\CCCOP(=O)(CCN(CCCN)CCCN)OCCCCCCOP(=O)(CCN(CCCN)CCCN)OCCC/C=C\CCCCC.Cl.Cl.Cl.Cl.Cl.Cl (centres undefined)	1
CCCCOP(=O)(CCN(CCCN)CCCN)OCCCCCCCCCCOP(=O)(CCN(CCCN)CCCN)OCCCC.Cl.Cl.Cl.Cl.Cl.Cl (centres undefined)	128
CCCCCCCCCCOP(=O)(CCN(CCCN)CCCN)OCCCCCCCCCCOP(=O)(CCN(CCCN)CCCN)OCCCCCCCCCC.Cl.Cl.Cl.Cl.Cl.Cl (centres undefined)	2

Tested on: not listed separately
Assay: Hemolytic activity in human RBC assessed as haemoglobin release measured after 3 hr
Assay type: toxicity, cell-based, Erythrocyte
Settings: red blood cells (erythrocytes)

Structure (SMILES)	HC50 at 3 h [µg/mL]
CCCCC/C=C\CCCOP(=O)(CCN(CCCN)CCCN)OCCCCCCOP(=O)(CCN(CCCN)CCCN)OCCC/C=C\CCCCC.Cl.Cl.Cl.Cl.Cl.Cl (centres undefined)	43
CCCCOP(=O)(CCN(CCCN)CCCN)OCCCCCCCCCCOP(=O)(CCN(CCCN)CCCN)OCCCC.Cl.Cl.Cl.Cl.Cl.Cl (centres undefined)	> 500
CCCCCCCCCCOP(=O)(CCN(CCCN)CCCN)OCCCCCCCCCCOP(=O)(CCN(CCCN)CCCN)OCCCCCCCCCC.Cl.Cl.Cl.Cl.Cl.Cl (centres undefined)	5.2
